Laboratory results reported in patent US6916852B2, “Method for regulation of microvascular tone” (University of Tennessee Research Foundation, priority 2003, dated 2005).
Where two headings read alike, the source gives them in different places.

Experiments:
[1] = cited from earlier work; for changes in blood pressure or renal function (Dilger): therapeutic doses for 15 days, healthy young or elderly subjects
cremaster arterioles = test: Intravital microscopy of cremaster muscle arterioles; type: in vivo, C57-BL mice
Description: Male C57-BL mice age 7-8 weeks and weighing approximately 20 grams are anesthetized with an intramuscular injection of 100 to 150 microliters of a mixture of ketamine and xylazine (87 mg ketamine and 13 mg xylazine per ml) based on the weight of the individual animal. The body temperature was maintained at about 37° C. by convective heating. The animal is supinated, a midline incision is made in the ventrocervical region, and the underlying tissues are bisected laterally to expose the trachea. A tracheotomy is performed and the animal is intubated directly with PE50 tubing to facilitate ventilation. The wound is then closed.
The left rear limb is incised to expose the femoral neurovascular bundle and the femoral vein is isolated and catheterized with PE10 tubing attached to a syringe containing normal saline. The animal is then placed on a specially designed surgery board and the right testicle within the scrotum is oriented over a translumination observation window contained in the surgery board. The scrotum is irrigated with warmed (about 37° C.) physiological saline (4.3 mM NaHCO3, 126.4 mM NaCl, 0.9 mM KCl, 0.4 mM CaCl2, 0.2 mM MgSO4). The scrotum is incised medially and the underlying fascia is bluntly dissected to expose the testicle. The apical portion of the cremaster muscle is pinned distally on the surgery board and the cremaster muscle is incised along its long axis to expose the testicle. The testicle is then gently forced back into the inguinal canal, allowing the cremaster muscle to be pinned evenly around the translumination window.
(§1) All experiments are carried out using an industrial grade microscope (Nikon MM-11) with two light sources, bright field (OptiQuip 75 W xenon) and fluorescent (Nikon 150 W mercury). The primary camera assembly has a chilled charged coupled device (CCD) and controller (Hamamastu C5985). The secondary camera assembly has a CCD camera (MTI CCD72) in conjunction with an intensifier (MTI […]). Experiments are viewed on a video monitor and recorded on a digital video recorder for off-line processing.
The prepared animal, as described above in Examples 1 and 2, is placed on the stage of the microscope on the surgery board with the translumination window. Exposed tissues are irrigated with warmed physiological saline through which a N2/CO2 (95%/5%) mixture is bubbled. The tissue is allowed to equilibrate until normal blood flow is observed or perfusate flow stabilizes, during which time the tissue is scanned at 1-X for A1-A4 arterioles. The arterioles are then tested for physiological tone by the topical administration of 0.1 mM adenosine (positive control).
(§2) After the arteriole returns to resting diameter (about 10 minutes) the tissue is treated topically with test chemical drugs or the drugs are administered systemically and the responses of the arterioles are viewed at 20× magnification. Topical treatment is by directly applying a vehicle solution (1:1:18 stepantex:ethanol:saline) or a drug plus vehicle solution. Systemic treatments in the whole animal are administered through the femoral vein catheter. The arteriole is video recorded during the entire procedure for off-line analysis. The blood pressure is monitored throughout the procedure utilizing a 1.4 F (0.56 mm) Millar catheter pressure transducer inserted into the left ventricle via the aorta. Systolic and diastolic blood pressure, and heart rate are recorded. Drug dosing regimens for the animals are based on literature values or values experimentally determined via drug titration curves on a mg/kg basis.
The video images of Example 3 are analyzed off-line by first converting the digital AVI files into digital image files followed by analysis using MetaMorph software (Universal Imaging Co.) on a Dell Optiplex GX-1. Calibration of the software is done using a micrometer slide and measurements are defined in micrometers/pixel. […]

cannabinoid receptors = conditions: cited from earlier work; for effect on blood pressure, intra-arterially administered (Adams): intra-arterial; for effect on blood pressure, intravenously administered (Adams): intravenous
[2] = rats subsequently bled; doubled from about 30 minutes; cited from earlier work
mesenteric arterioles = test: Intravital microscopy of mesenteric arterioles; type: in vivo, C57-BL mice; conditions: topical
Description: Animals as described in Example 1 are prepared for surgery as described in Example 1. The animal is supinated on the surgery board so that the ventral portion of the animal faces the observation window. Upon irrigation with warmed physiological saline, a midline incision is made through the linea alba. A loop of small intestine from the lower duodenal segment is extracted and pinned around the observation window, with the pins passing through the proximal mesentery and not through the intestine proper.
as §1, with “processing. […]” for “processing.”
as §2, with “Topical treatment is by directly applying a vehicle solution (1:1:18 stepantex:ethanol:saline) or a drug plus vehicle solution. Systemic treatments in the whole animal are administered through the femoral vein catheter.” left out
The video images of Example 3 are analyzed off-line by first converting the digital AVI files into digital image files followed by analysis using MetaMorph software (Universal Imaging Co.) on a Dell Optiplex GX-1. […]
Data analysis is carried out using GraphPad, Prism software. […] Time course curves are fit using non-linear regression from which the rate of vessel constriction or dilation is calculated. […]

[3] = systemically administered, 2 mg/kg NS-398

## Cc1ccc(-c2cc(C(F)(F)F)nn2-c2ccc(S(N)(=O)=O)cc2)cc1 [celecoxib]
[1]; patients, administered for six weeks
  effect on blood pressure (Johnson): inconclusive
[1]
  changes in blood pressure or renal function (Dilger): not associated with significant changes in blood pressure or renal function

## Nc1ncnc2c1ncn2[C@@H]1O[C@H](CO)[C@@H](O)[C@H]1O [adenosine]
Cremaster arterioles; topical administration of adenosine, cremaster arteriole
  change in arteriole diameter (FIG. 1B): Dilation of the arteriole

## CCCCC/C=C\C/C=C\C/C=C\C/C=C\CCCC(=O)NCCO [ANA, arachidonyl ethanolamide]
Cannabinoid receptors; in vivo
  effect on blood pressure (Kunos, U.S. Pat. No. 5,939,429): causes hypotension
Cremaster arterioles; systemically administered, by about 200 seconds post-administration
  change in cremaster arteriolar diameter (FIG. 5B): causes a dilatation of cremaster arterioles
Cremaster arterioles; topically administered, by about 200 seconds post-administration
  change in cremaster arteriolar diameter (FIG. 5A): causes a dilatation of cremaster arterioles

## CCCCCc1cc(O)c2c(c1)OC(C)(C)[C@@H]1CCC(C)=C[C@@H]21 [Δ^9-tetrahydrocannabinol]
Cannabinoid receptors
  effect on blood pressure, intra-arterially administered (Adams): produced an increase in blood pressure indicative of vasoconstriction
  effect on blood pressure, intravenously administered (Adams): caused decreases in blood pressure

## CS(=O)(=O)Nc1ccc([N+](=O)[O-])cc1OC1CCCCC1 [NS-398, N-(2-cyclohexyloxy-4-nitrophenyl) methane sulphonamide]
Cremaster arterioles; [3]
  initial increase in arteriolar diameter (FIG. 2): ~8%
  time to return to baseline diameter (FIG. 2): ≤ 3 min

## CCCCCc1cc(O)c2c(c1)OC(C)(C)[C@@H]1CC=C(C)C[C@@H]21 [THC, Δ^8-tetrahydrocannabinol]
[2]
  survival time (Wagner): ~60 min
Cannabinoid receptors
  effect on blood pressure, intra-arterially administered (Adams): produced an increase in blood pressure indicative of vasoconstriction
  effect on blood pressure, intravenously administered (Adams): transient increase in blood pressure that lasted only about one minute and that was followed by a more prolonged hypotensive response
Cannabinoid receptors; listed as Δ^8-tetrahydrocannabinol
  effect on blood pressure, intravenously administered (Adams): caused decreases in blood pressure
Cremaster arterioles; systemic, 12 mg/kg THC alone
  time post-administration of return to baseline diameter (FIG. 3B): about 30 seconds
Cremaster arterioles; systemic, initial 100 seconds
  initial mild constriction of arterioles (FIG. 3B): about 15%
Cremaster arterioles; topical
  response of cremaster arterioles to topical application (FIG. 3A): mirrors that of the response to systemic administration of THC
Mesenteric arterioles
  duration of initial brief constriction (FIG. 4): less than 5 seconds
  response of mesenteric arterioles (FIG. 4): biphasic response
  time post administration of return to baseline (FIG. 4): about 100 seconds

## CCCCCCC(C)(C)c1cc(O)c2c(c1)OC(C)(C)[C@@H]1CC=C(CO)C[C@@H]21 [HU-210]
[2]
  survival time (Wagner): ~60 min

## CS(=O)(=O)c1ccc(C2=C(c3ccccc3)C(=O)OC2)cc1 [rofecoxib]
[1]; in vivo
  effect on blood pressure (Johnson): found to elevate blood pressure

## O=C(O)Cc1ccccc1Nc1c(Cl)cccc1Cl [diclofenac]
[1]
  changes in blood pressure or renal function (Dilger): not associated with significant changes in blood pressure or renal function
